Patent US20190375708A1 (VenatoRx Pharmaceuticals, Inc., priority 2018, published 2019)

Legend:
[1] = system: HBV replication in HepAD38 cells; experiment: Anti-HBV replication assay in HepAD38 cells (QPCR of extracellular HBV DNA); format: cell-based, HBV (genotype D, serotype ayw); settings: Hepatitis B virus, 168 h, 7 days incubation, extracellular HBV DNA by QPCR, read-out: Anti-HBV EC50
Summary of the method: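 EC50 values reflect 50% reduction of extracellular HBV DNA, measured by QPCR after 7-day treatment of tetracycline-deprived HepAD38 cells with compound […].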

[2] = In vitro cytotoxicity assay (MTT cell viability) in HepG2 cells; format: cell-based, human; settings: human
Summary of the method: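 Viability measured by MTT conversion, absorbance at 492 nm, as percent of vehicle-treated wells. Compounds spanned 30 μM to 1.0 nM in half-log steps over a 7-day exposure of parental HepG2 cells; CC50 derived by 4-parameter curve fit.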

SMILES	EC50 [1] [µM]	CC50 at 7 days [2] [µM]
Cc1cc(Cl)cc(NC(=O)c2c(C)c(C(=O)C(=O)N[C@@H]3CCC[C@@H](O)C3)n(C)c2C)c1 [Example 688, N-(3-chloro-5-methylphenyl)-5-(2-(((1R,3R)-3-hydroxycyclohexyl)amino)-2-oxoacetyl)-1,2,4-trimethyl-1H-pyrrole-3-carboxamide]	< 0.05	> 30
CC(C)(CO)CNC(=O)C(=O)c1c(Cl)c(C(=O)Nc2ccc(F)c(Cl)c2)c2n1CCCC2 [Example 527, 2-chloro-N-(3-chloro-4-fluorophenyl)-3-(2-((3-hydroxy-2,2-dimethylpropyl)amino)-2-oxoacetyl)-5,6,7,8-tetrahydroindolizine-1-carboxamide]	0.5 to 1	0.5 to 4.99
Cc1c(C(=O)Nc2ccc(F)c(Cl)c2)c(C)n(C)c1C(=O)C(=O)NC1CCC(F)(F)CC1 [Example 314, N-(3-chloro-4-fluorophenyl)-5-(2-((4,4-difluorocyclohexyl)amino)-2-oxoacetyl)-1,2,4-trimethyl-1H-pyrrole-3-carboxamide]	< 0.05	5 to 30
Cc1cc(NC(=O)c2cc(C(=O)C(=O)N[C@@H](CO)[C@H](C)O)n3c2CCCC3)ccc1F [Example 417, 3-(2-(((2S,3S)-1,3-dihydroxybutan-2-yl)amino)-2-oxoacetyl)-N-(4-fluoro-3-methylphenyl)-5,6,7,8-tetrahydroindolizine-1-carboxamide]	0.05 to 0.499	> 30
Cc1cc(NC(=O)c2c(C)c(C(=O)C(=O)NC[C@H](C)O)n(C)c2C)ccc1F [Example 218, (S)-N-(4-fluoro-3-methylphenyl)-5-(2-((2-hydroxypropyl)amino)-2-oxoacetyl)-1,2,4-trimethyl-1H-pyrrole-3-carboxamide]	< 0.05	5 to 30
Cc1cc(NC(=O)c2c(C)c(C(=O)C(=O)NC34CC5CC(CC(O)(C5)C3)C4)n(C)c2C)ccc1F [Example 15, N-(4-fluoro-3-methylphenyl)-5-(2-(((1r,3s,5R,7S)-3-hydroxyadamantan-1-yl)amino)-2-oxoacetyl)-1,2,4-trimethyl-1H-pyrrole-3-carboxamide]	< 0.05	> 30
Cc1cc(NC(=O)c2c(C)c(C(=O)C(=O)Nc3cccnc3)n(C)c2C)cnc1F [Example 339, N-(6-fluoro-5-methylpyridin-3-yl)-1,2,4-trimethyl-5-(2-oxo-2-(pyridin-3-ylamino)acetyl)-1H-pyrrole-3-carboxamide]	0.5 to 1	> 30
CC[C@H](C)NC(=O)C(=O)c1c(Cl)c(C(=O)Nc2cnc(F)c(C)c2)c2n1CCCC2 [Example 729, (S)-3-(2-(sec-butylamino)-2-oxoacetyl)-2-chloro-N-(6-fluoro-5-methylpyridin-3-yl)-5,6,7,8-tetrahydroindolizine-1-carboxamide]	0.05 to 0.499	> 30
Cc1c(C(=O)Nc2ccc(F)cn2)c(C)n(C)c1C(=O)C(=O)NC12CC3CC(CC1C3)C2 [Example 135, N-(5-fluoropyridin-2-yl)-5-(2-(((2R,3as,5S,6as)-hexahydro-2,5-methanopentalen-3a(1H)-l)amino)-2-oxoacetyl)-1,2,4-trimethyl-1H-pyrrole-3-carboxamide]	0.05 to 0.499	5 to 30
Cc1cc(NC(=O)c2c(C)c(C(=O)C(=O)NC3(C(F)(F)F)CCOCC3)n(C)c2C)cc(Cl)n1 [Example 638, N-(2-chloro-6-methylpyridin-4-yl)-1,2,4-trimethyl-5-(2-oxo-2-((4-(trifluoromethyl)etetrahydro-2H-pyran-4-yl)amino)acetyl)-1H-pyrrole-3-carboxamide]	< 0.05	> 30
Cc1cc(NC(=O)c2c(C)c(C(=O)C(=O)NC3CCSCC3)n(C)c2C)ccc1F [Example 223, N-(4-fluoro-3-methylphenyl)-1,2,4-trimethyl-5-(2-oxo-2-((tetrahydro-2H-thiopyran-4-yl)amino)acetyl)-1H-pyrrole-3-carboxamide]	< 0.05	5 to 30
